Measured values published in patent US5234942A, “Heterocyclic amides and leucotriene antagonistic use thereof” (ICI Americas Inc., priority 1984, dated 1993).

tested on: leukotrienes; assay: leukotriene antagonist properties (test not specified; standard tests); conditions: in words
Protocol: Using this procedure, tracheal tissue strips are set up in groups of eight, four being used as time/vehicle controls and four for each test compound. All of the strips are exposed to 8×10^-9 M leukotriene E4 (LTE4) following the 50 minute equilibration period, and the response recorded. This concentration of LTE4 is that which produces a contraction equal to about 70-80% of the maximal effect of the agonist in this tissue. The LTE4 is washed out for 40-45 minutes and the procedure repeated twice to ensure that reproducible responses are being obtained with LTE4. Leukotriene C4 (LTC4) or D4 (LTD4), at a concentration of 8×10^-9 M, may be substituted for LTE4 in the same procedure.
Once tissue reproducibility has been established, test compounds are added to four baths following the 40 to 45 minute washout period. After a 10 minute incubation with test compound or vehicle, 8×10^-9 M LTE4, LTD4 or LTC4 is added and the response recorded. The percentage inhibition by the test compound or the percentage change in vehicle controls is calculated, for each tissue, according to the following equation: % inhibition=100 multiplied by (mg. tension increase of preceding response minus mg. tension increase in presence of compound) […]) divided by mg. tension increase of preceding response. The mean percentage change for vehicle controls and test compound are calculated and evaluated for significant differences by Students' t-test for unpaired data. Tissues exposed to test compounds were retested for responsiveness to LTE4, LTD4 or LTC4 following a 25 minute washout period. If tissue responsiveness was equal to responsiveness preceding exposure to the test compound additional studies were conducted. If responsiveness was not restored by the washing procedure, the tissues were discarded. The cyclooxygenase inhibitor, indomethacin, is present at 5×10^-6 M in all the determinations.
In general, compounds of formula I produce a significant increase in the time of onset of leukotriene initiated breathing changes following either oral, intravenous or intra peritoneal administration at a dose of 100 mg./kg., or much less, without any indication of untoward side-effects at several multiples of the minimum effective dose. By way of example, the compounds described in Examples 262, 158 and 168 produced significant increases in time required for onset of leukotriene D4 initiated disponoea following oral dosing at about 5 mg./kg., 43 mg./kg. and 50 mg./kg., respectively, 1-2 hours prior to leukotriene challenge.

Which leukotriene antagonist properties does the source give for `COc1cc(C(=O)NS(=O)(=O)c2ccccc2N)ccc1Cn1ccc2ccc(NC(=O)CC3CCCC3)cc21` [Example 266] here?
Its leukotriene antagonist properties is “potent leukotriene antagonist properties”.

For `COc1cc(C(=O)O)ccc1Cn1cc(C(C)=O)c2ccc(NC(=O)OC3CCCC3)cc21` [Example 222], which leukotriene antagonist properties is on record?
Its leukotriene antagonist properties is “potent leukotriene antagonist properties”.

How did the leukotriene antagonist properties turn out when `COc1cc(C(=O)NS(=O)(=O)c2ccccc2C)ccc1Cn1ccc2ccc(NC(=O)CC3CCCC3)cc21` [Example 265] was run?
Its leukotriene antagonist properties is “potent leukotriene antagonist properties”.

Which leukotriene antagonist properties does the source give for `CCC(C(=O)Nc1ccc2cnn(Cc3ccc(C(=O)NS(=O)(=O)c4ccccc4)cc3OC)c2c1)c1ccccc1` (stereo not drawn) [Example 261, N-(4-[6-(2-phenylbutanamido)indazol-1-ylmethyl]-3-methoxybenzoyl)benzenesulphonamide] here?
Its leukotriene antagonist properties is “potent leukotriene antagonist properties”.

With `CCCCC(CC)C(=O)Nc1ccc2cnn(Cc3ccc(-c4nnn[nH]4)cc3OC)c2c1` (stereo not drawn) [Example 163, 6-(2-ethylhexanamido)-1-(2-methoxy-4-[2(H)-tetrazol-5-yl]benzyl)indazole] as the compound, how does the leukotriene antagonist properties read?
Its leukotriene antagonist properties is “potent leukotriene antagonist properties”.

`COc1cc(C(=O)O)ccc1Cn1ncc2ccc(NC(=O)OC3CCCC3)cc21` [Example 170] was tested. Which leukotriene antagonist properties did it give?
The leukotriene antagonist properties was “potent leukotriene antagonist properties”.

Which leukotriene antagonist properties does the source give for `COc1cc(C(=O)O)ccc1Cn1ccc2ccc(NC(=O)CC3CCCCC3)cc21` [Example 209] here?
Its leukotriene antagonist properties is “potent leukotriene antagonist properties”.

With `COc1cc(C(=O)NS(=O)(=O)c2ccccc2)ccc1Cn1ccc2ccc(NC(=O)OC3CCCC3)cc21` [Example 256, N-(4-[6-(cyclopentyloxycarbonyl)-aminoindol-1-ylmethyl]-3-methoxybenzoyl)benzenesulphonamide] as the compound, how does the leukotriene antagonist properties read?
The leukotriene antagonist properties was “potent leukotriene antagonist properties”.

With `COc1cc(C(=O)NS(=O)(=O)c2ccccc2)ccc1Cn1ccc2ccc(NC(=O)CC3CCCC3)cc21` [Example 280, N-(4-[6-(2-cyclopentylacetamido)indol-1-ylmethyl]-3-methoxybenzoyl)benzenesulphonamide] as the compound, how does the leukotriene antagonist properties read?
The leukotriene antagonist properties was “potent leukotriene antagonist properties”.

Which leukotriene antagonist properties does the source give for `COc1cc(C(=O)NS(=O)(=O)c2ccccc2)ccc1Cn1ncc2ccc(NC(=O)OC3CCCC3)cc21` [Example 262] here?
Its leukotriene antagonist properties is “potent leukotriene antagonist properties”.

`CCCCOC(=O)Nc1ccc2cnn(Cc3ccc(C(=O)NS(=O)(=O)c4ccccc4)cc3OC)c2c1` [Example 294] was tested. Which leukotriene antagonist properties did it give?
The leukotriene antagonist properties was “potent leukotriene antagonist properties”.

How did the leukotriene antagonist properties turn out when `COc1cc(-c2nnn[nH]2)ccc1Cn1ncc2ccc(NC(=O)OC3CCCC3)cc21` [Example 162, 6-(cyclopentyloxycarbonyl)amino-1-(2-methoxy-4-[1(H)-tetrazole-5-yl]benzyl)indazole] was run?
The leukotriene antagonist properties was “potent leukotriene antagonist properties”.

With `CCCCC(CC)C(=O)Nc1ccc2c(C=CC(=O)OC)cn(Cc3ccc(C(=O)O)cc3OC)c2c1` (stereo not drawn) [Example 241, 4-(3-[2-methoxycarbonylvinyl]-6-[2-ethylhexanamido]indol-1-ylmethyl)-3-methoxybenzoic acid] as the compound, how does the leukotriene antagonist properties read?
Its leukotriene antagonist properties is “potent leukotriene antagonist properties”.

For `COc1cc(C(=O)NS(=O)(=O)c2ccccc2)ccc1Cn1ccc2ccc(NC(=O)C3CCCC3)cc21` [Example 278], which leukotriene antagonist properties is on record?
Its leukotriene antagonist properties is “potent leukotriene antagonist properties”.

`COc1cc(C(=O)NS(=O)(=O)c2ccccc2)ccc1Cn1cc(Cl)c2ccc(NC(=O)OC3CCCC3)cc21` [Example 279] was tested. Which leukotriene antagonist properties did it give?
Its leukotriene antagonist properties is “potent leukotriene antagonist properties”.

For `COc1cc(C(=O)NS(=O)(=O)c2ccccc2)ccc1Cn1cc(C(C)=O)c2ccc(NC(=O)OC3CCCC3)cc21` [Example 277, N-(4-[3-acetyl-6-(cyclopentyloxycarbonyl)aminoindol-1-ylmethyl]-3-methoxybenzoyl)benzenesulphonamide], which leukotriene antagonist properties is on record?
The leukotriene antagonist properties was “potent leukotriene antagonist properties”.

`CCCCOC(=O)Nc1ccc2cnn(Cc3ccc(-c4nnn[nH]4)cc3OC)c2c1` [Example 161, 6-(butyloxycarbonyl)amino-1-(2-methoxy-4-[1(H)-tetrazol-5-yl]benzyl)indazole] was tested. Which leukotriene antagonist properties did it give?
Its leukotriene antagonist properties is “potent leukotriene antagonist properties”.

For `COc1cc(C(=O)NS(=O)(=O)c2ccccc2)ccc1CN1CCc2ccc(NC(=O)CC3CCCC3)cc21` [Example 284, N-(4-[6-(2-cyclopentylacetamido)indolin-1-ylmethyl]-3-methoxybenzoyl)benzenesulphonamide], which leukotriene antagonist properties is on record?
The leukotriene antagonist properties was “potent leukotriene antagonist properties”.

Which leukotriene antagonist properties does the source give for `COc1cc(C(=O)NS(=O)(=O)c2ccccc2)ccc1Cn1ncc2ccc(NC(=O)CC3CCCC3)cc21` [Example 263, N-(4-[6-(2-cyclopentylacetamido)indazol-1-ylmethyl]-3-methoxybenzoyl)benzenesulphonamide] here?
The leukotriene antagonist properties was “potent leukotriene antagonist properties”.

How did the leukotriene antagonist properties turn out when `CCCCOC(=O)Nc1ccc2ccn(Cc3ccc(-c4nnn[nH]4)cc3OC)c2c1` [Example 157, 6-(butoxycarbonyl)amino-1-(2-methoxy-4-[1(H)-tetrazol-5-yl]benzyl)indole] was run?
The leukotriene antagonist properties was “potent leukotriene antagonist properties”.

`COc1cc(C(=O)O)ccc1Cn1ccc2ccc(NC(=O)OC3CCC3)cc21` [Example 122] was tested. Which leukotriene antagonist properties did it give?
The leukotriene antagonist properties was “potent leukotriene antagonist properties”.

For `COc1cc(C(=O)O)ccc1Cn1ccc2ccc(NC(=O)CC3CCCC3)cc21` [Example 114], which leukotriene antagonist properties is on record?
Its leukotriene antagonist properties is “potent leukotriene antagonist properties”.

For `COc1cc(C(=O)O)ccc1Cn1cc(Cl)c2ccc(NC(=O)CC3CCCC3)cc21` [Example 224], which leukotriene antagonist properties is on record?
Its leukotriene antagonist properties is “potent leukotriene antagonist properties”.

For `COc1cc(-c2nnn[nH]2)ccc1Cn1ccc2ccc(NC(=O)OC3CCCC3)cc21` [Example 158, 6-(cyclopentyloxycarbonyl)amino-1-(2-methoxy-4-[1(H)tetrazol-5-yl]benzyl)indole], which leukotriene antagonist properties is on record?
Its leukotriene antagonist properties is “potent leukotriene antagonist properties”.

With `COc1cc(C(=O)O)ccc1Cn1ccc2ccc(NC(=O)OC3CCCC3)cc21` [Example 176, 4-[6-(cyclopentyloxycarbonyl)aminoindol-1-ylmethyl]-3-methoxybenzoic acid] as the compound, how does the leukotriene antagonist properties read?
Its leukotriene antagonist properties is “potent leukotriene antagonist properties”.

With `COc1cc(C(=O)O)ccc1Cn1cc(Cl)c2ccc(NC(=O)OC3CCCC3)cc21` [Example 221] as the compound, how does the leukotriene antagonist properties read?
The leukotriene antagonist properties was “potent leukotriene antagonist properties”.

For `COc1cc(C(=O)NS(=O)(=O)c2ccccc2C)ccc1Cn1ncc2ccc(NC(=O)CC3CCCC3)cc21` [Example 264], which leukotriene antagonist properties is on record?
The leukotriene antagonist properties was “potent leukotriene antagonist properties”.
